Measured values published in ChEMBL document CHEMBL3525956, “Species independence in brain tissue binding using brain homogenates” (Drug Metab Dispos, 2011).

Key:
[1] = Fraction unbound in Wistar Han rat brain homogenates at 1 uM after 6 hrs by equilibrium dialysis method; conditions: brain homogenate
[2] = Fraction unbound in Hartley guinea pig brain homogenates at 1 uM after 6 hrs by equilibrium dialysis method; conditions: brain homogenate
[3] = Fraction unbound in CD-1 mouse brain homogenates at 1 uM after 6 hrs by equilibrium dialysis method; conditions: brain homogenate
[4] = Fraction unbound in human occipital cortex at 1 uM after 6 hrs by equilibrium dialysis method
[5] = Fraction unbound in Sprague-Dawley rat brain homogenates at 1 uM after 6 hrs by equilibrium dialysis method; conditions: brain homogenate
[6] = Fraction unbound in Beagle dog brain homogenates at 1 uM after 6 hrs by equilibrium dialysis method; conditions: brain homogenate
[7] = Fraction unbound in cynomolgus monkey brain homogenates at 1 uM after 6 hrs by equilibrium dialysis method; conditions: brain homogenate

Structure (SMILES)	fraction unbound at 6 h, 1 µM [1]	fraction unbound at 6 h, 1 µM [2]	fraction unbound at 6 h, 1 µM [3]	fraction unbound at 6 h, 1 µM [4]	fraction unbound at 6 h, 1 µM [5]	fraction unbound at 6 h, 1 µM [6]	fraction unbound at 6 h, 1 µM [7]
O=C(O[C@H]1CN2CCC1CC2)N1CCc2ccccc2[C@@H]1c1ccccc1 [SOLIFENACIN]	0.019	0.014	0.016	0.017	0.015	0.018	0.016
CC(C)(C)NCC(O)COc1ccc(NC(=O)NC2CCCCC2)cc1 (stereo unspecified) [TALINOLOL]	0.141	0.117	0.117	0.137	0.096	0.247	0.176
CC(CC(c1ccccc1)c1ccccc1)NC(C)(C)C (stereo unspecified) [TERODILINE]	0.025	0.059	0.049	0.028	0.02	0.148	0.071
Cc1ccc(C(=O)c2cc(O)c(O)c([N+](=O)[O-])c2)cc1 [TOLCAPONE]	0.001	0.002	0.002	0.003	0.007	0.05	0.003
O=c1n(CCCN2CCN(c3cccc(Cl)c3)CC2)nc2ccccn12 [TRAZODONE]	0.085	0.059	0.086	0.077	0.062	0.066	0.082
CN1[C@@H]2CC[C@H]1C[C@@H](OC(=O)c1c[nH]c3ccccc13)C2 [TROPISETRON]	0.056	0.048	0.059	0.053	0.045	0.047	0.064
CC(=O)CC(c1ccccc1)c1c(O)c2ccccc2oc1=O (stereo unspecified) [WARFARIN]	0.183	0.326	0.094	0.295	0.199	0.384	0.318
NS(=O)(=O)Cc1noc2ccccc12 [ZONISAMIDE]	0.327	0.389	0.299	0.308	0.598	0.428	0.386
